# Assay results as given in the supplement of paper PMC10307832.
# How the values were obtained:
# Assay in all cases: relative viability (nuclei count vs DMSO), 5 days (fraction); higher = more cells survive
# [1] = tested on: COR-L23
# Summary of the method: (§1)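 Lung cancer cell lines were pin-tool dosed in 1536-well plates on the day after seeding, with either a lone drug or a fixed anchor-drug dose plus five library-drug doses (not always all listed) in √10 steps. Nuclei were counted on 4× images after 5 days. Relative viability is the ratio of treated-well to vehicle-well nuclei counts, with each value a median of duplicate plates.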
# [2] = tested on: ChaGo-K-1
# Summary of the method: as §1
# [3] = tested on: EMC-BAC-2
# Summary of the method: as §1
# [4] = tested on: EPLC-272H
# Summary of the method: as §1
# [5] = tested on: H3255
# Summary of the method: as §1
# [6] = tested on: HCC-44
# Summary of the method: as §1
# [7] = tested on: HCC-827
# Summary of the method: as §1
# [8] = tested on: LCLC-103H
# Summary of the method: as §1
# [9] = tested on: LU99A
# Summary of the method: as §1
# [10] = tested on: NCI-H1395
# Summary of the method: as §1
# [11] = tested on: NCI-H1651
# Summary of the method: as §1
# [12] = tested on: NCI-H1793
# Summary of the method: as §1
# [13] = tested on: NCI-H1944
# Summary of the method: as §1
# [14] = tested on: NCI-H2023
# Summary of the method: as §1
# [15] = tested on: NCI-H2085
# Summary of the method: as §1
# [16] = tested on: NCI-H2087
# Summary of the method: as §1
# [17] = tested on: NCI-H2405
# Summary of the method: as §1
# [18] = tested on: NCI-H520
# Summary of the method: as §1
# [19] = tested on: NCI-H650
# Summary of the method: as §1
# [20] = tested on: NCI-H838
# Summary of the method: as §1
# [21] = tested on: SK-MES-1
# Summary of the method: as §1
smiles,measurement,setting,value
Nc1ccn([C@@H]2O[C@H](CO)[C@@H](O)[C@@H]2O)c(=O)n1 [Cytarabine] + CC(=O)Nc1cccc(-n2c(=O)n(C3CC3)c(=O)c3c(Nc4ccc(I)cc4F)n(C)c(=O)c(C)c32)c1 [Trametinib] (partner 0.02 µM),relative viability,[1]; first compound 0.005 µM,0.71
same,relative viability,[1]; first compound 0.01581 µM,0.529
same,relative viability,[1]; first compound 0.05 µM,0.546
same,relative viability,[1]; first compound 0.1581 µM,0.304
same,relative viability,[1]; first compound 0.5 µM,0.203
same,relative viability,[2]; first compound 0.005 µM,0.688
same,relative viability,[2]; first compound 0.01581 µM,0.625
same,relative viability,[2]; first compound 0.05 µM,0.504
same,relative viability,[2]; first compound 0.1581 µM,0.308
same,relative viability,[2]; first compound 0.5 µM,0.247
same,relative viability,[3]; first compound 0.005 µM,0.972
same,relative viability,[3]; first compound 0.01581 µM,0.902
same,relative viability,[3]; first compound 0.05 µM,0.842
same,relative viability,[3]; first compound 0.1581 µM,0.497
same,relative viability,[3]; first compound 0.5 µM,0.427
same,relative viability,[4]; first compound 0.005 µM,0.302
same,relative viability,[4]; first compound 0.01581 µM,0.246
same,relative viability,[4]; first compound 0.05 µM,0.283
same,relative viability,[4]; first compound 0.1581 µM,0.211
same,relative viability,[4]; first compound 0.5 µM,0.22
same,relative viability,[5]; first compound 0.005 µM,0.637
same,relative viability,[5]; first compound 0.01581 µM,0.652
same,relative viability,[5]; first compound 0.05 µM,0.639
same,relative viability,[5]; first compound 0.1581 µM,0.559
same,relative viability,[5]; first compound 0.5 µM,0.533
same,relative viability,[6]; first compound 0.005 µM,1.08
same,relative viability,[6]; first compound 0.01581 µM,1.03
same,relative viability,[6]; first compound 0.05 µM,1.08
same,relative viability,[6]; first compound 0.1581 µM,1.04
same,relative viability,[6]; first compound 0.5 µM,1.01
same,relative viability,[7]; first compound 0.005 µM,0.362
same,relative viability,[7]; first compound 0.01581 µM,0.313
same,relative viability,[7]; first compound 0.05 µM,0.239
same,relative viability,[7]; first compound 0.1581 µM,0.188
same,relative viability,[7]; first compound 0.5 µM,0.154
same,relative viability,[8]; first compound 0.005 µM,0.692
same,relative viability,[8]; first compound 0.01581 µM,0.687
same,relative viability,[8]; first compound 0.05 µM,0.671
same,relative viability,[8]; first compound 0.1581 µM,0.682
same,relative viability,[8]; first compound 0.5 µM,0.742
same,relative viability,[9]; first compound 0.005 µM,0.588
same,relative viability,[9]; first compound 0.01581 µM,0.447
same,relative viability,[9]; first compound 0.05 µM,0.497
same,relative viability,[9]; first compound 0.1581 µM,0.549
same,relative viability,[9]; first compound 0.5 µM,0.544
same,relative viability,[10]; first compound 0.005 µM,1.06
same,relative viability,[10]; first compound 0.01581 µM,1.02
same,relative viability,[10]; first compound 0.05 µM,0.591
same,relative viability,[10]; first compound 0.1581 µM,0.524
same,relative viability,[10]; first compound 0.5 µM,0.436
same,relative viability,[11]; first compound 0.005 µM,0.846
same,relative viability,[11]; first compound 0.01581 µM,0.858
same,relative viability,[11]; first compound 0.05 µM,0.818
same,relative viability,[11]; first compound 0.1581 µM,0.591
same,relative viability,[11]; first compound 0.5 µM,0.384
same,relative viability,[12]; first compound 0.005 µM,0.489
same,relative viability,[12]; first compound 0.01581 µM,0.405
same,relative viability,[12]; first compound 0.05 µM,0.398
same,relative viability,[12]; first compound 0.1581 µM,0.266
same,relative viability,[12]; first compound 0.5 µM,0.258
same,relative viability,[13]; first compound 0.005 µM,0.36
same,relative viability,[13]; first compound 0.01581 µM,0.287
same,relative viability,[13]; first compound 0.05 µM,0.3
same,relative viability,[13]; first compound 0.1581 µM,0.168
same,relative viability,[13]; first compound 0.5 µM,0.169
same,relative viability,[14]; first compound 0.005 µM,0.463
same,relative viability,[14]; first compound 0.01581 µM,0.253
same,relative viability,[14]; first compound 0.05 µM,0.169
same,relative viability,[14]; first compound 0.1581 µM,0.104
same,relative viability,[14]; first compound 0.5 µM,0.0963
same,relative viability,[15]; first compound 0.005 µM,0.504
same,relative viability,[15]; first compound 0.01581 µM,0.552
same,relative viability,[15]; first compound 0.05 µM,0.5
same,relative viability,[15]; first compound 0.1581 µM,0.26
same,relative viability,[15]; first compound 0.5 µM,0.39
same,relative viability,[16]; first compound 0.005 µM,0.187
same,relative viability,[16]; first compound 0.01581 µM,0.221
same,relative viability,[16]; first compound 0.05 µM,0.187
same,relative viability,[16]; first compound 0.1581 µM,0.139
same,relative viability,[16]; first compound 0.5 µM,0.126
same,relative viability,[17]; first compound 0.005 µM,0.648
same,relative viability,[17]; first compound 0.01581 µM,0.53
same,relative viability,[17]; first compound 0.05 µM,0.464
same,relative viability,[17]; first compound 0.1581 µM,0.401
same,relative viability,[17]; first compound 0.5 µM,0.317
same,relative viability,[18]; first compound 0.005 µM,0.696
same,relative viability,[18]; first compound 0.01581 µM,0.684
same,relative viability,[18]; first compound 0.05 µM,0.579
same,relative viability,[18]; first compound 0.1581 µM,0.477
same,relative viability,[18]; first compound 0.5 µM,0.484
same,relative viability,[19]; first compound 0.005 µM,0.793
same,relative viability,[19]; first compound 0.01581 µM,0.694
same,relative viability,[19]; first compound 0.05 µM,0.47
same,relative viability,[19]; first compound 0.1581 µM,0.186
same,relative viability,[19]; first compound 0.5 µM,0.196
same,relative viability,[20]; first compound 0.005 µM,0.724
same,relative viability,[20]; first compound 0.01581 µM,0.535
same,relative viability,[20]; first compound 0.05 µM,0.543
same,relative viability,[20]; first compound 0.1581 µM,0.274
same,relative viability,[20]; first compound 0.5 µM,0.246
same,relative viability,[21]; first compound 0.005 µM,0.545
same,relative viability,[21]; first compound 0.01581 µM,0.603
same,relative viability,[21]; first compound 0.05 µM,0.315
same,relative viability,[21]; first compound 0.1581 µM,0.215
same,relative viability,[21]; first compound 0.5 µM,0.227
